In paper PMC6270205, “Antimicrobial and Selected In Vitro Enzyme Inhibitory Effects of Leaf Extracts, Flavonols and Indole Alkaloids Isolated from Croton menyharthii” (Molecules, 2013):
Converted amounts (≈) assume the structure as drawn. Where two headings read alike, the source gives them in different places.

Columns and labels:
[1] = target: T1, AChE (isolated from electric eels) (Electrophorus electricus, UniProt O42275); experiment: biochemical
T1 construct: AChE (isolated from electric eels) (type VI-S lyophilized powder); purchased Sigma-Aldrich type VI-S lyophilized powder; host or cells: isolated from electric eels
T1 sequence (O42275 24-633): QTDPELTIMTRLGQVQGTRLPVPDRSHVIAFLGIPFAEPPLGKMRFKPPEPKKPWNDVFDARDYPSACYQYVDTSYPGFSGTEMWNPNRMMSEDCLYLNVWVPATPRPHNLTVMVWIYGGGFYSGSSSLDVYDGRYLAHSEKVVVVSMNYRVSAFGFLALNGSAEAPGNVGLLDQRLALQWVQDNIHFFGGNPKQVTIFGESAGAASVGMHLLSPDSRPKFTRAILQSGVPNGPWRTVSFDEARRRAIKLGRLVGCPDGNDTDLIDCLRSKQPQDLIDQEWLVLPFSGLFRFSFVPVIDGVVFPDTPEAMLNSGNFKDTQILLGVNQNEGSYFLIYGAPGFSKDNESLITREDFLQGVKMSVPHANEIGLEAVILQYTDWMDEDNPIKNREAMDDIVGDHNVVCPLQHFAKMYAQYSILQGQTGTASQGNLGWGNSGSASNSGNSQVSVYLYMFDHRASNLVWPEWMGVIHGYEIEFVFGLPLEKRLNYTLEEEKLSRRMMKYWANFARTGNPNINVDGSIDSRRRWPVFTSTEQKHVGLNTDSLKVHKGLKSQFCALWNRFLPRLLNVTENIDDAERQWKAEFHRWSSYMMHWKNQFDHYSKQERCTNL
Procedure: Inhibition of AChE by the crude methanol extract, fractions and isolated compounds was done as described by Ellman et al. with some modifications. The acetylcholinesterase enzyme activity was measured by spectrophotometric observation of the increase in a yellow colour produced from thiocholine when it reacts with the dithiobisnitrobenzoate ion. AChE (isolated from electric eels) (type VI-S lyophilized powder) was obtained from Sigma-Aldrich. The assay was carried out in a 96-well microtitre plate. The crude methanol extract, fractions and isolated compounds were at initial concentrations of 10 mg/mL (crude extract and fractions) and 1 mg/mL (pure compounds). The increase in absorbance due to the spontaneous hydrolysis of the substrate was corrected by subtracting the ratio of reaction before adding the enzyme from the rate after adding the enzyme (0.2 U/mL). Percentage of inhibition was calculated by comparing the reaction rates for the sample to the negative control. […] The IC50 values of extracts and compounds were calculated using Graph Pad Prism (version 5.0) statistical software programme for Windows (GraphPad Software Inc.).

[2] = test system: Staphylococcus aureus ATCC 12600; experiment: Antibacterial microdilution bioassay (MIC); format: cell-based; conditions: for Antimicrobial MIC S.a.: n = 3
Procedure: (§1) Minimum inhibitory concentration (MIC) values for antibacterial activity of the crude methanol extract, fractions and isolated compounds were determined using the microdilution bioassay in a 96-well (Greiner Bio-one GmbH, Frickenhausen, Germany) microtitre plates. One hundred microlitres of the resuspended (in 70% aqueous acetone) crude extract, fractions (50 mg/mL) or compounds (1 mg/mL) was two-fold serially diluted with sterile distilled water, in duplicate down the microtitre plate for each of the four bacteria used. A similar two-fold serial dilution of neomycin (Sigma) (0.1 mg/mL) was used as a positive control against each bacterium. Water and 70% aqueous acetone were included as a negative/solvent controls. The screening was done in triplicate and repeated twice for each extract.

[3] = test system: Escherichia coli ATCC 11775; experiment: Antibacterial microdilution bioassay (MIC); format: cell-based; conditions: for Antimicrobial MIC E.c.: n = 3
Procedure: as §1

[4] = test system: Bacillus subtilis ATCC 6051; experiment: Antibacterial microdilution bioassay (MIC); format: cell-based; conditions: for Antimicrobial MIC B.s.: n = 3
Procedure: as §1

[5] = test system: Klebsiella pneumoniae ATCC 13883; experiment: Antibacterial microdilution bioassay (MIC); format: cell-based; conditions: for MIC: Klebsiella pneumoniae
Procedure: as §1

yeast α-glucosidase = target: T2, yeast α-glucosidase (Saccharomyces cerevisiae, UniProt P53341); experiment: α-Glucosidase inhibitory activity; format: biochemical, Saccharomyces cervisiae
T2 construct: purchased Sigma-Aldrich
T2 sequence (P53341 whole entry): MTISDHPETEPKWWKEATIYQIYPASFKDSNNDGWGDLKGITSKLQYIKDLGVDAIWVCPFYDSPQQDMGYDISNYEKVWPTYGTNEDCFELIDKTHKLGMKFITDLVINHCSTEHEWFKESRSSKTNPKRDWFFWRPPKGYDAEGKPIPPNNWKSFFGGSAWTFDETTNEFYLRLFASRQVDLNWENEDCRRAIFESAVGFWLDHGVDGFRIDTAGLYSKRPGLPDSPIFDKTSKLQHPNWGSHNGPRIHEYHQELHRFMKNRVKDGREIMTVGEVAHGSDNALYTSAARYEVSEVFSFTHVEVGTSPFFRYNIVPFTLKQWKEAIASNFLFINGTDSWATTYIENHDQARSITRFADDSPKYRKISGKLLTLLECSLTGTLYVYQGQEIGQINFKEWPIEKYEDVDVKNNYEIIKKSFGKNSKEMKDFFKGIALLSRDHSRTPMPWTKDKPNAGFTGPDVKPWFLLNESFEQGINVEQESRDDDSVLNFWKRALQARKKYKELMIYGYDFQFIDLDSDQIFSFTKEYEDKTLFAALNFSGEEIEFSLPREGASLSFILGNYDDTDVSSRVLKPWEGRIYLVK
Procedure: All thin layer chromatography analyses were performed at room temperature using pre-coated plates (MERCK, silica gel 60 F254 0.2 thickness). Detection of spots was done by viewing under UV light (254 and 366 nm). Open column chromatography was carried out using silica gel (230-400 mesh) and Sephadex LH-20. Nuclear magnetic resonance (NMR) data were obtained using Bruker spectrometers (400 and 500 MHz). Chemical shifts are expressed in parts per million (ppm).
α-Glucosidase inhibitory activity was determined as previously described by Tao et al. with modifications as detailed by Rengasamy et al.. Briefly, yeast α-glucosidase (0.1 Unit/mL) was dissolved in 0.1 M potassium phosphate buffer (pH 6.8), this was used as the enzyme solution. The control experiment contained the same reaction mixture, but the sample solution was replaced with the same volume of phosphate buffer. […] The determinations were carried out in triplicate. The percentage inhibition (%) was calculated using the following equation: % Inhibition = (Acontrol − Asample)/Acontrol × 100(1) where Acontrol is the absorbance of the control and Asample is the absorbance of the sample. The IC50, which is the concentration of the sample required to inhibit 50% of the enzyme was determined for each sample.

[6] = test system: Candida albicans (ATCC 10231); experiment: Antifungal microdilution bioassay (MIC); format: cell-based
Procedure: The antifungal activity of the crude methanol extract, fractions and isolated compounds were evaluated against Candida albicans (ATCC 10231) using the micro-dilution assay, modified for an antifungal assay. An overnight fungal culture was prepared in 10 mL yeast malt (YM) broth. Four hundred microliters of the overnight Candida culture were added to 4 mL of sterile saline solution. The absorbance was read at 530 nm and adjusted with sterile saline solution to match that of a […] McFarland standard solution. From this prepared stock, a 1:1000 dilution with sterile YM broth was prepared to give an approximately 10^6 cfu/mL culture. One hundred microlitres of the resuspended (in 70% aqueous acetone) crude extract, fractions (50 mg/mL) or compounds (1 mg/mL) were two-fold serially diluted with sterile distilled water, in duplicate down a 96-well microtitre plate. A similar 2-fold serial dilution of amphotericin B (Sigma, 2.5 mg/mL) was used as a positive control. Water, 70% aqueous acetone and fungal free broth were included as negative/solvent controls. The screening was done in triplicate and repeated twice for each extract, the MIC and MFC values were recorded.

[7] = target: T3, human recombinant COX-2 enzyme (Homo sapiens, UniProt P35354); experiment: Cyclooxygenase (COX-2) inhibitory bioassay; format: biochemical; conditions: read-out: COX-2 inhibitory activity level
T3 construct: His6 (N); purchased Sigma-Aldrich; host or cells: Baculovirus overexpression system in Sf 21 cells
T3 sequence (P35354 18-604): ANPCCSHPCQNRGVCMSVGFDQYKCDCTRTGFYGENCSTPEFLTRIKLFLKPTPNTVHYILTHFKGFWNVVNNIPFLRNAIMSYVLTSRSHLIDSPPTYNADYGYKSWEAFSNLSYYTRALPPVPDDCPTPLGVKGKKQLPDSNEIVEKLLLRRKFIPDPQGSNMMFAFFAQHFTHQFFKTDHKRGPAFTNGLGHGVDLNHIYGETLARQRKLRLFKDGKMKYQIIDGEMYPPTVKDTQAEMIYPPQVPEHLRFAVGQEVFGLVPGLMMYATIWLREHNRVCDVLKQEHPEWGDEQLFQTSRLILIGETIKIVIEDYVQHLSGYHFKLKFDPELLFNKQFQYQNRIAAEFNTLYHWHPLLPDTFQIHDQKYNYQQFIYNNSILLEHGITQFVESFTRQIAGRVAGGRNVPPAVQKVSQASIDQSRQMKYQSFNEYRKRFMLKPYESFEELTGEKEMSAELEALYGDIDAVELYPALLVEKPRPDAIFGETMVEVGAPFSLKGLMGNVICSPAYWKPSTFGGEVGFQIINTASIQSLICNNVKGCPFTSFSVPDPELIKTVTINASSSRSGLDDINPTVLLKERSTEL

[8] = pure compounds at 300 µg/mL, mean ± standard error, read-out: AChE inhibitory activity Percentage inhibition
[9] = ATCC12600, n = 3, read-out: Antimicrobial MIC S.a.
[10] = ATCC11775, n = 3, read-out: Antimicrobial MIC E.c.
[11] = ATCC6051, n = 3, read-out: Antimicrobial MIC B.s.
[12] = ATCC13883, Klebsiella pneumonia, n = 3, read-out: Antimicrobial MIC K.p.
[13] = read-out: α-Glucosidase inhibitory activity Percentage inhibition
[14] = ATCC10231, n = 3, read-out: Antimicrobial MIC C.a.
[15] = ATCC10231, read-out: Antimicrobial MIC C.a.
[16] = pure compounds at 300 µg/mL, mean ± standard error

Q: `O=c1c(O)c(-c2ccc(O)c(O)c2)oc2cc(O)cc(O)c12` [Quercetin (3), 3,3', 4',5,7-pentahydroxyflavone] was tested. Which inhibition at 300 µg/mL [1, 8] did it give?
A: 56.6 ± 0.3%

Q: What about the MIC [2, 9] of the same molecule?
A: > 250 µg/mL

Q: And the MIC [3, 10]?
A: > 250 µg/mL

Q: What about the MIC [4, 11] of the same molecule?
A: 30 µg/mL (≈ 99.3 µM)

Q: And the MIC [5, 12]?
A: 250 µg/mL (≈ 827 µM)

Q: What about the inhibition at 300 µg/mL (yeast α-glucosidase; [13]) of the same molecule?
A: 67.1 ± 4.2%

Q: And the MIC [6, 14]?
A: 20 µg/mL (≈ 66.2 µM)

Q: For `C[C@@H]1[C@H](O)[C@@H](C)/C=C/C=C/C=C/C=C/C=C/C=C/C=C/[C@H](O[C@@H]2O[C@H](C)[C@@H](O)[C@H](N)[C@@H]2O)C[C@@H]2O[C@](O)(C[C@@H](O)C[C@@H](O)[C@H](O)CC[C@@H](O)C[C@@H](O)CC(=O)O[C@H]1C)C[C@H](O)[C@H]2C(=O)O` [Amphotericin B, amphotericin B, reference compound], which MIC [6, 15] is on record?
A: 9.77 µg/mL (≈ 10.6 µM)

Q: For neomycin [reference compound], which “Antimicrobial MIC S.a.” value [2] is on record?
A: 1.6 µg/mL

Q: What about the “Antimicrobial MIC E.c.” value [3] of the same molecule?
A: 0.8 µg/mL

Q: And the “Antimicrobial MIC B.s.” value [4]?
A: 1.6 µg/mL

Q: And the “Antimicrobial MIC K.p.” value ([5]; Klebsiella pneumonia, n = 3)?
A: 0.8 µg/mL

Q: `CC1OC(Oc2c(-c3cc(O)c(O)c(O)c3)oc3cc(O)cc(O)c3c2=O)C(O)C(O)C1O` (stereo not shown) [Myricetrin-3-O-rhamnoside (1), Myricetrin-3-O-rhamnoside] was tested. Which IC50 [1] did it give?
A: 140 µM

Q: What about the inhibition at 300 µg/mL ([1]; read-out: AChE inhibitory activity Percentage inhibition) of the same molecule?
A: 54.3 ± 1.1%

Q: And the MIC ([2]; ATCC12600, read-out: Antimicrobial MIC S.a.)?
A: 250 µg/mL (≈ 538 µM)

Q: What about the MIC ([3]; ATCC11775, read-out: Antimicrobial MIC E.c.) of the same molecule?
A: 250 µg/mL (≈ 538 µM)

Q: What about the MIC ([4]; ATCC6051, read-out: Antimicrobial MIC B.s.) of the same molecule?
A: 250 µg/mL (≈ 538 µM)

Q: And the MIC ([5]; ATCC13883, read-out: Antimicrobial MIC K.p.)?
A: 250 µg/mL (≈ 538 µM)

Q: What about the IC50 (yeast α-glucosidase) of the same molecule?
A: 170 µM

Q: What about the inhibition at 300 µg/mL (yeast α-glucosidase; [13]) of the same molecule?
A: 89.1 ± 5.3%

Q: What about the MIC [6, 15] of the same molecule?
A: 250 µg/mL (≈ 538 µM)

Q: And the inhibition at 25 µg/mL [7]?
A: < 20%

Q: With `O=C(/C=C/c1ccc(O)cc1)NCCc1c[nH]c2ccc(O)cc12` [Trans-N-(p-coumaroyl) serotonin (4), (E)-N-(4-hydroxycinnamoyl)-5-hydroxytryptamine] as the molecule, how does the IC50 ([1]; mean ± standard error, read-out: AChE inhibitory activity IC50 (converted)) read?
A: 46.5 µM

Q: And the inhibition at 300 µg/mL [1, 8]?
A: 72.6 ± 4.9%

Q: What about the inhibition at 300 µg/mL ([1]; pure compounds at 300 µg/mL, read-out: AChE inhibitory activity level) of the same molecule?
A: 70 to 100%

Q: What about the MIC [2, 9] of the same molecule?
A: 250 µg/mL (≈ 776 µM)

Q: What about the MIC [3, 10] of the same molecule?
A: 250 µg/mL (≈ 776 µM)

Q: What about the MIC [4, 11] of the same molecule?
A: 250 µg/mL (≈ 776 µM)

Q: And the MIC [5, 12]?
A: 250 µg/mL (≈ 776 µM)

Q: What about the IC50 (yeast α-glucosidase) of the same molecule?
A: 16.4 µM

Q: What about the inhibition at 300 µg/mL (yeast α-glucosidase; [13]) of the same molecule?
A: 97.3 ± 3.2%

Q: And the MIC [6, 14]?
A: 130 µg/mL (≈ 403 µM)

Q: How did the “AChE inhibitory activity Percentage inhibition” value [1, 16] turn out when “Quercetin-3-O-rhamnoside [Quercetin-3-O-rhamnoside (2)]” was run?
A: 53.3 ± 1.0 b,c

Q: And the “Antimicrobial MIC S.a.” value [2]?
A: >250 µg/mL

Q: And the “Antimicrobial MIC E.c.” value [3]?
A: >250 µg/mL

Q: What about the “Antimicrobial MIC B.s.” value [4] of the same molecule?
A: 130 µg/mL

Q: And the “Antimicrobial MIC K.p.” value ([5]; Klebsiella pneumonia, n = 3)?
A: >250 µg/mL

Q: And the “α-Glucosidase inhibitory activity Percentage inhibition” value (yeast α-glucosidase; [16])?
A: 47.0 ± 1.7 a

Q: What about the “Antimicrobial MIC C.a.” value ([6]; n = 3) of the same molecule?
A: 250 µg/mL

Q: For `C[C@H]1O[C@H](O[C@H]2[C@H](O)[C@@H](O)[C@@H](O[C@H]3[C@H](O)[C@@H](O)C(O)O[C@@H]3CO)O[C@@H]2CO)[C@H](O)[C@@H](O)[C@@H]1N[C@H]1C=C(CO)[C@@H](O)[C@H](O)[C@H]1O` (stereo partly shown) [Acarbose, acarbose, reference compound], which inhibition at 250 µg/mL (yeast α-glucosidase; [13]) is on record?
A: 83.6 ± 2.6%
